The values that follow come from patent US20180200326A1, “ANG-(1-7) AND DERIVATIVE OLIGOPEPTIDES FOR THE TREATMENT OF TRAUMATIC BRAIN INJURY AND OTHER COGNITIVE IMPAIRMENTS” (Arizona Board Of Regents On Behalf Of The University of …, priority 2017, published 2018).

Where two headings read alike, the source gives them in different places. Peptide text beside a SMILES is read from it. * marks the point of attachment. X2 = OC[C@H]1O[C@@H](O[C@H]2[C@H](O)[C@@H](O)C(*)O[C@@H]2CO)[C@H](O)[C@@H](O)[C@H]1O; X1 = OC[C@H]1OC(*)[C@H](O)[C@@H](O)[C@@H]1O

The conditions of data set [1]: mouse, serum.
Method: (§2) Aliquots were withdrawn at the indicated time intervals and the peptide concentration was determined using HPLC-MS and expressed as a percentage of the initial concentration.
In data set [2] the test system is CHF mice (spatial memory impairment). As to the kind of experiment: Morris water task (spatial memory) in congestive heart failure mice. The data set is classed as in vivo, mouse. The following applies: 1 mg/kg/day subcutaneous, approximately 25 days, day 3 of Morris swim task, n=11, CHF-saline M=32.5. How it is done:
A total of 33, male C57Bl/6J adult mice (Harlan, 8-10 weeks old) were used. Mice were randomly assigned to either the sham (n=12) or congestive heart failure (CHF) group (n=21). Experimental groups are described as follows: sham+saline, CHF+saline, CHF+PN-A5. All mice prior to surgery were weighed and anesthetized. For the CHF mice, MI was induced by ligation of the left coronary artery (LCA). Under anesthesia (2.5% isoflurane in a mixture of air and O2) a thoracotomy was performed at the fourth left intercostal space and the LCA permanently ligated to induce a myocardial infarction (MI). Occlusion of the LCA was confirmed by observing blanching, a slight change in color of the anterior wall of the left ventricle downstream of the ligature. Sham mice underwent the same procedure with the exception of ligating the LCA. […]
During the spatial version of the Morris water task, all animals were given 6 training trials per day over 4 consecutive days. […] Performance on the swim task was analyzed with a commercial software application (ANY-maze, Wood Dale, Ill.). Because different release locations and differences in swimming velocity produce variability in the latency to reach the escape platform, a corrected integrated path length (CIPL) was calculated to ensure comparability of mice performance across different release locations. […]

In data set [3] the test system is human umbilical vascular endothelial cells (HUVEC). Put plainly: NO production assay (DAF-FM fluorescence, microplate reader). The class given is cell-based. The settings on record: 5 minutes exposure; for NO over control levels (relative peak fluorescence intensity): normalized to control fluorescence. From the text:
(§1) To isolate primary hippocampal CA1 neuronal cells, whole brain was removed from neonatal rat pups (1-2 day old) and the cortices dissected away. The hippocampus was isolated and the CA1 field was excised and placed in buffer. After gentle disruption in digestion buffer, the cells were counted, placed in culture media, and plated in a 96-well format coated with poly-d-lysine. At the time of plating, cells were approximately at 50% density and were allowed to culture to 70-80% density before starting the assay. Commercially available HUVEC (Life Technologies/Thermo Fisher) was thawed and plated (5000-10,000 cells/well) in a 96-well format coated with gelatin. HUVEC cells were allowed to culture overnight before starting the assay.
As a screen for mechanisms of action of oligopeptides of the invention, the ability to increase NO production of three oligopeptides of the invention (PN-A3, PN-A4 and PN-A5) were characterized and compared to native Ang-(1-7). Human umbilical vascular endothelial cells (HUVEC) culture plates received fluorescence reaction buffer (0.2 M phosphate buffer, pH 7, 1 mM EDTA, 0.1% glucose) containing diaminofluorescein-FM diacetate (DAF-FM, 1 μM) to measure real-time NO production. Time-resolved (10 minutes) fluorescent intensity was detected using a BioTek Synergy 2 microplate reader with excitation at 485 nm and emission at 535 nm. DAF-FM is a sensitive flourometric derivative for the selective detection of NO in live cells.
Values were normalized to control fluorescence.

Data set [4] in a line: In vivo serum and CSF concentration after subcutaneous injection. The settings on record: naïve mice; 10 mg/kg subcutaneous; microdialysis probe; corrected for basal CSF levels.
Method: (§3) The peptides (10 mg/kg) or vehicle control were individually subcutaneously injected into naïve mice. Serum concentrations were determined every 10 minutes by HPLC-MS using a 20-30 μl blood sample. […] CSF samples were simultaneously withdrawn from the same animals via a microdialysis probe and assayed for the peptide concentration and corrected for basal CSF levels.
The test system of data set [5] is human umbilical vascular endothelial cells (HUVEC). Put plainly: xCELLigence RTCA cell activation (cell impedance). The class given is cell-based. The following applies: average of 4 wells, normalized to CI at compound addition.
Text: as §1
The xCELLigence system Real-Time Cell Analyzer (RTCA), developed by Roche Applied Science, uses microelectronic biosensor technology to do dynamic, real-time, label-free, and non-invasive analysis of cellular events including G-protein receptor activation of cells. The RTCA analysis was utilized to measure the potency and relative ability of oligopeptides of the invention and native Ang-(1-7) to activate human umbilical vascular endothelial cells (HUVEC) in culture. Following uniform cellular adherence based on a linear increase in cell impedance (CI), HUVECs were treated with Ang-(1-7) and oligopeptides of the invention. Each trace of the CI over time in FIG. 1 represents the average of 4 wells normalized to CI at the time of compound addition.

Data set [6] has as its system CHF mice (object recognition memory impairment). Put plainly: Novel Object Recognition (NOR) in congestive heart failure mice. The class given is in vivo, mouse. The following applies: 1 mg/kg/day subcutaneous, approximately 21 days, n=11, DRatio=(t novel−t familiar)/(t novel+t familiar), CHF-saline M=−0.05, Sham-saline M=+0.52. As to the method:
A total of 33, male C57Bl/6J adult mice (Harlan, 8-10 weeks old) were used. Mice were randomly assigned to either the sham (n=12) or congestive heart failure (CHF) group (n=21). Experimental groups are described as follows: sham+saline, CHF+saline, CHF+PN-A5. All mice prior to surgery were weighed and anesthetized. For the CHF mice, MI was induced by ligation of the left coronary artery (LCA). Under anesthesia (2.5% isoflurane in a mixture of air and O2) a thoracotomy was performed at the fourth left intercostal space and the LCA permanently ligated to induce a myocardial infarction (MI). […]
The apparatus consisted of an evenly illuminated Plexiglas box (12 cm×12 cm×12 cm) placed on a table inside an isolated observation room. […] The mouse behavior and exploration of objects was recorded with a digital camera. […]
The novel object recognition task included 3 phases: habituation phase, familiarization phase, and test phase. […] Exploration was scored by an observer blind to the mouse's surgical group (CHF vs. Sham). […]
Discrimination ratios were calculated from the time spent exploring the novel object minus time spent exploring the familiar object during the test phase divided by the total exploration time. […] Data were analyzed from first 2 minutes of ‘test phase’. […]

A short description of data set [7]: In Vitro Serum Half-Life Assay. The settings on record: mouse.
Method: as §2
The next data set deals with T1, Mas receptor (MasR) (Homo sapiens, UniProt P04201).
T1 sequence (P04201 1-325): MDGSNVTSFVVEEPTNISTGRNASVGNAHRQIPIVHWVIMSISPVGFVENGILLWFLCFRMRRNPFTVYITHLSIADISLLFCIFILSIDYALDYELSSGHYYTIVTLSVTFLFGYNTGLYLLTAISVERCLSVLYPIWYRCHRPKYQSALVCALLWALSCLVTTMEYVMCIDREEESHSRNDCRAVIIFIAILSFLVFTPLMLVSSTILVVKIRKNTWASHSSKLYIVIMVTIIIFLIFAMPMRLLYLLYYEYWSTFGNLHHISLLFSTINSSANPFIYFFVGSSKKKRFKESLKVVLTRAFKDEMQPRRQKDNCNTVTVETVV
The settings on record: binding to GPCR Mas receptor (MasR); cited from earlier work.

For data set [8] the following is noted: mouse, in vivo, sc, 10 mg/kg.
Method: as §3
Another data set can be described thus: in vivo. The following applies: mouse, sc, 10 mg/kg.

The half-life is the time needed for the level to fall by half in the phase considered. Read a low half-life as rapid decline. The compound `CC[C@H](C)[C@H](NC(=O)[C@H](Cc1ccc(O)cc1)NC(=O)[C@@H](NC(=O)[C@H](CCCNC(=N)N)NC(=O)[C@@H](N)CC(=O)O)C(C)C)C(=O)N[C@@H](Cc1c[nH]cn1)C(=O)N1CCC[C@H]1C(N)=O` [PN-A2, Ang 1-7-NH2] showed a half-life in data set [1] of 21 min.
On to `CC[C@H](C)[C@H](NC(=O)[C@H](Cc1ccc(O)cc1)NC(=O)[C@@H](NC(=O)[C@H](CCCNC(=N)N)NC(=O)[C@@H](N)CC(=O)O)C(C)C)C(=O)N[C@@H](Cc1c[nH]cn1)C(=O)N[C@@H](COC1O[C@H](CO)[C@@H](O)[C@H](O)[C@H]1O)C(N)=O` (stereo partly drawn) [PN-A5, Ang 1-6-Ser(OGlc)-NH2] (H-DRVYIHS(X1)-NH2; N-terminus assumed), for which the “corrected integrated path length (CIPL), mean M” value in data set [2] stood at 23.5. Moreover, in [3], the “NO over control levels (relative peak fluorescence intensity)” value is reported as “significant elevation”. In addition, the “NO production compared with native Ang-(1-7)” value in [3] (p<0.05) was “significantly enhancing NO production”. For the same compound, the “maximum CSF concentration” value in [4] is reported as “about 400 nM”. Further, the “increase in CI (cell impedance) over the native Ang-(1-7)” value (from here on “increase in CI (cell impedance)”) in [5] (10 nM) and in data set [5] (100 nM) was ~2 fold each time. In [6], the “discrimination ratio in NOR test (mean M)” value was “+0.38”.
Take `CC[C@H](C)[C@H](NC(=O)[C@H](Cc1ccc(O)cc1)NC(=O)[C@@H](NC(=O)[C@H](CCCNC(=N)N)NC(=O)[C@@H](N)CC(=O)O)C(C)C)C(=O)N[C@@H](Cc1c[nH]cn1)C(=O)N[C@@H](COC1O[C@H](CO)[C@@H](O[C@@H]2O[C@H](CO)[C@H](O)[C@H](O)[C@H]2O)[C@H](O)[C@H]1O)C(N)=O` (stereo partly drawn) [PN-A6, Ang 1-6-Ser(OLac)-NH2] (H-DRVYIHS(X2)-NH2): the half-life in data set [7] is 348 min.
By Kd is commonly meant the constant that tells how readily two partners part at equilibrium. As a reminder, the Cmax is the peak of the concentration-time curve. As for `CC[C@H](C)[C@H](NC(=O)[C@H](Cc1ccc(O)cc1)NC(=O)[C@@H](NC(=O)[C@H](CCCNC(=N)N)NC(=O)[C@@H](N)CC(=O)O)C(C)C)C(=O)N[C@@H](Cc1c[nH]cn1)C(=O)N1CCC[C@H]1C(=O)O` [native Ang-(1-7), Asp-Arg-Val-Tyr-Ile-His-Pro], at Mas receptor (MasR), the Kd is 0.83 nM. In addition, in data set [8], the “maximum CSF concentration” value was “about 50 nM”. This compound gave a half-life in data set [1] of 14 min. In the data set “in vivo”, the Cmax was ~200 nM.
As to “PN-A3: native Ang(1-7) sequence with added C-terminal Ser8, glucosylated and C-terminally amidated (NH2); SEQ ID NO: 9 (DRVYIHPS; glucosylated, C-terminal amide; (8)..(8) Glycosylated; (8)..(8) Carboxy terminal NH2; See specification as filed for detailed description of substitutions and preferred embodiments)”, the “NO over control levels (relative peak fluorescence intensity)” value in [3] is on record as “significant elevation”. The “increase in CI (cell impedance)” value in data set [5] (10 nM) and in data set [5] (100 nM) was ~2 fold throughout.
As to “PN-A4: native Ang(1-7) sequence with added C-terminal Ser8, lactosylated and C-terminally amidated (NH2); SEQ ID NO: 9 (DRVYIHPS; lactosylated, C-terminal amide; (8)..(8) Glycosylated; (8)..(8) Carboxy terminal NH2; See specification as filed for detailed description of substitutions and preferred embodiments)”, in [3], the “NO over control levels (relative peak fluorescence intensity)” value was “significant elevation”. Moreover, the “increase in CI (cell impedance)” value in data set [5] (100 nM) was ~2 fold.
